In brackets after ≈: the same amount, converted by molar mass. Read-outs that look alike come from different tables or passages of the source.
What was measured:
[1] = mouse plasma, 37° C.; cited from earlier work
[2] = system: fluconazole-resistant Cryptococcus neoformans; format: cell-based
Description: Clinical isolates of C. neoformans were obtained from patient cerebrospinal fluid, blood, bone marrow, sputum, bronchial lavage and wound infections at the University of Virginia Medical Center, Strains clinically resistant to fluconazole (See: Jessup, C. J. et al, 1997; Poster #F-88, 37th ICAAC, Toronto, Canada) were provided by the Center for Medical Mycology, Case Western Reserve University. Yeast strains (except for C. albidus and C. laurentii) were maintained by single colony transfer on Sabouraud Dextrose Agar (SDA), pH 5.6 at 35° C. Cryptococcus albidus, C. laurentii and C. uniguttulatus (#66033) were maintained on SDA, pH 6.6 at 25° C., C. uniguttulatus (#34143) and C. ater on Yeast Morphology (YM) agar at 25° C. and filamentous fungi were maintained on Potato Dextrose Agar (PDA) slants at 35° C.
(§1) Dolastatin 10 and modifications were screened against yeasts by the broth macrodilution assay according to the NCCLS (National Committee for Clinical Laboratory Standards, Reference Method for Broth Dilution Antifungal Susceptibility Testing of Yeasts: Approved Standard M27-A, NCCLS, Wayne, Pa., 1997). Yeasts were suspended and diluted as recommended to yield final inocula ranging from 0.5-2.5×10^3 colony forming units (CFU)/ml. Tests were performed in sterile 12×75 mm plastic tubes containing two-fold dilutions of the peptides in 0.165 M morpholinepropanesulfonic acid (MOPS)-buffered RPMI 1640 medium (pH 7.0). One tube was left drug-free for a turbidity control. Tubes were incubated without agitation at 35° C. (25° C. for C. albidus and C. laurentii). MICs were determined after 72 h for Cryptococcus, and after
(§2) 48 h for other yeast genera. The MIC was defined as the lowest concentration of compound that inhibited all visible growth of the test organism.
(§3) Minimum fungicidal concentrations (MFCs) were determined by subculturing 0.1 ml from each tube with no visible growth in the MIC broth macrodilution series onto drug-free SDA plates. The plates were incubated at 35° C. for 48 h for Cryptococcus (25° C. for C. alhidus and C. laurentii), and 35° C. for 24 h for all other yeast and filamentous fungi.

[3] = mice, intravenous injection; cited from earlier work
Aspergillus fumigatus = experiment: Broth macrodilution susceptibility testing of filamentous fungi; format: cell-based; settings: ATCC 96918
Experimental: (§4) Broth macrodilution susceptibility testing of Aspergillus fumigatus and Rhizopus oligosporus was performed according to a proposed standardized procedure (Espinel-Ingroff et al., Multicenter evaluation of a proposed standardized procedure for antifungal susceptibility testing of filamentous fungi, J Clin Microbiol 1997, 35: 139-43) with slight modification. To induce conidium and sporangiospore formation, A. fumigatus and R. oligosporus were grown on PDA slants at 35° C. for 6 days. Fungal slants were covered with 1 ml of sterile 0.85% NaCl, and suspensions made by gently probing the colonies with the tip of a sterile pasteur pipette. The resulting mixture of hyphal fragments and conidia or sporangiospores was withdrawn, transferred to a sterile clear microfuge tube, and heavy particles were allowed to settle for 10 min. […] Susceptibility to the synthetic peptides was then determined by broth macrodilution assays as described above for the yeast cultures. MICs for the filamentous fungi were read after 24 h.
(§5) Minimum fungicidal concentrations (MFCs) were determined by subculturing 0.1 ml from each tube with no visible growth in the MIC broth macrodilution series onto drug-free SDA plates. […]

Rhizopus oligosporus = experiment: as above; format: cell-based; settings: ATCC 22959
Experimental: as §4, §5

Cryptococcus albidus [4] = experiment: Broth macrodilution assay; format: cell-based
Experimental: as §1, §2, §3

Cryptococcus ater = experiment: Broth macrodilution assay; format: cell-based; settings: ATCC 14247
Experimental: as §1, §2, §3

Candida glabrata [5] = experiment: Broth macrodilution assay; format: cell-based; settings: ATCC 90030
Experimental: as §1, §2, §3

Candida albicans [6] = experiment: Broth macrodilution assay; format: cell-based; settings: ATCC 90028
Experimental: as §1, §2, §3

Cryptococcus laurentii [7] = experiment: Broth macrodilution assay; format: cell-based
Experimental: as §1, §2, §3

Candida lusitaniae = experiment: Broth macrodilution assay; format: cell-based; settings: ATCC 42720
Experimental: as §1, §2, §3

Candida parapsilosis = experiment: Broth macrodilution assay; format: cell-based; settings: ATCC 22019
Experimental: as §1, §2, §3

[8] = system: Cryptococcus uniguttulatus; experiment: Broth macrodilution assay; format: cell-based
Experimental: as §1, §2, §3

Rhodotorula mucilaginosa = experiment: Broth macrodilution assay; format: cell-based; settings: ATCC 9449
Experimental: as §1, §2, §3

Cryptococcus albidus [9] = experiment: Disk diffusion susceptibility testing; format: cell-based; settings: ATCC 66030
Experimental: (§6) Antimicrobial activity was assayed by disk susceptibility tests according to the NCCLS (National Committee for Clinical Laboratory Standards, Performance Standards for Antimicrobial Disk Susceptibility Tests-Sixth Edition: Approved standard M2-A6, NCCLS, Wayne, Pa., 1997). Inocula were adjusted to a density of 0.10 at 625 nm in SDA broth, and spread on SDA plates. Excess moisture was allowed to absorb for 10 min before applying dried disks containing two-fold dilutions of the drugs. Test plates were incubated at 35° C. (25° C. for C. albidus and C. laurentii), and zones of inhibition recorded after 48 h. The minimum inhibitory concentration (MIC) was defined as the lowest concentration of drug resulting in a clear zone of growth inhibition. Disk susceptibility testing of Staphylococcus aureus, Enterococcus faecalis, Escherichia coli and Neisseria gonorrhoeae was also performed.

Candida glabrata [10] = experiment: Disk diffusion susceptibility testing; format: cell-based; settings: ATCC 90030
Experimental: as §6

Candida albicans [11] = experiment: Disk diffusion susceptibility testing; format: cell-based; settings: ATCC 90028
Experimental: as §6

Cryptococcus laurentii [12] = experiment: Disk diffusion susceptibility testing; format: cell-based; settings: ATCC 66036
Experimental: as §6

Cryptococcus neoformans [13] = experiment: Disk diffusion susceptibility testing; format: cell-based; settings: ATCC 90112
Experimental: as §6

[14] = dog plasma, 37° C.; cited from earlier work
[15] = system: Cryptococcus neoformans #90112; experiment: Effect of host factors (pH, human serum) on broth macrodilution MICs and MFCs; format: cell-based
Experimental: as §1, §2, §3
Broth macrodilution assays were performed with RPMI prepared at pH 5, pH 6 and pH 7, and in RPMI, with and without 50% normal human serum (Lampire Biological Labs). Cryptococcus neoformans #90112 was used in each case.

[16] = human plasma, 37° C.; cited from earlier work
[17] = cited from earlier work
Cryptococcus neoformans [18] = experiment: Broth macrodilution assay (MIC, MFC), ATCC strains; format: cell-based
Experimental: as §1, §2, §3

CC[C@H](C)[C@@H]([C@@H](CC(=O)N1CCC[C@H]1[C@H](OC)[C@@H](C)C(=O)N[C@@H](Cc1ccccc1)c1nccs1)OC)N(C)C(=O)[C@@H](NC(=O)[C@H](C(C)C)N(C)C)C(C)C [1a, dolastatin 10]
stable in plasma [1]: at least 24 h | MFC ([2]; strain 94-2011): 1.56 µg/mL (≈ 1.99 µM) | MIC ([2]; strain 94-2011): 0.78 µg/mL (≈ 0.993 µM) | MFC ([2]; strain 94-2406): 0.0975 µg/mL (≈ 0.124 µM) | MIC ([2]; strain 94-2406): 0.0487 µg/mL (≈ 0.062 µM) | MFC ([2]; strain 94-2483): 0.39 µg/mL (≈ 0.497 µM) | MIC ([2]; strain 94-2483): 0.195 µg/mL (≈ 0.248 µM) | MFC ([2]; strain 95-2792): 3.12 µg/mL (≈ 3.97 µM) | MIC ([2]; strain 95-2792): 0.78 µg/mL (≈ 0.993 µM) | estimated elimination half-life [3]: 5.6 h | MIC (Aspergillus fumigatus): >50 µg/mL | MIC (Rhizopus oligosporus): >50 µg/mL | MIC (Cryptococcus albidus [4]; ATCC 10666): >50 µg/mL | MIC (Cryptococcus albidus [4]; ATCC 34140): >50 µg/mL | MIC (Cryptococcus albidus [4]; ATCC 66030): >50 µg/mL | MIC (Cryptococcus ater): >50 µg/mL | MFC (Candida glabrata [5]): >50 µg/mL | MIC (Candida glabrata [5]): >50 µg/mL | MFC (Candida albicans [6]): >25 µg/mL | MIC (Candida albicans [6]): >50 µg/mL | MIC (Cryptococcus laurentii [7]; ATCC 18803): >50 µg/mL | MIC (Cryptococcus laurentii [7]; ATCC 34142): >50 µg/mL | MIC (Cryptococcus laurentii [7]; ATCC 66036): >50 µg/mL | MIC (Candida lusitaniae): >50 µg/mL | MIC (Candida parapsilosis): >50 µg/mL | MIC ([8]; ATCC 34143): >50 µg/mL | MIC ([8]; ATCC 66033): >50 µg/mL | MIC (Rhodotorula mucilaginosa): >50 µg/mL | MIC (Cryptococcus albidus [9]): >100 μg/disk | MIC (Candida glabrata [10]): >100 μg/disk | MIC (Candida albicans [11]): >100 μg/disk | MIC (Cryptococcus laurentii [12]): >100 μg/disk | MIC (Cryptococcus neoformans [13]): 25-50 μg/disk | stable in plasma [14]: at least 24 h | MFC ([15]; 50% human serum): 1.56 µg/mL (≈ 1.99 µM) | MIC ([15]; 50% human serum): 0.78 µg/mL (≈ 0.993 µM) | MFC ([15]; RPMI pH 5): >50 µg/mL | MIC ([15]; RPMI pH 5): >50 µg/mL | MFC ([15]; RPMI pH 6): 25 µg/mL (≈ 31.8 µM) | MIC ([15]; RPMI pH 6): 6.25 µg/mL (≈ 7.96 µM) | MFC ([15]; RPMI pH 7): 1.56 µg/mL (≈ 1.99 µM) | MIC ([15]; RPMI pH 7): 0.78 µg/mL (≈ 0.993 µM) | MFC ([15]; no serum): 1.56 µg/mL (≈ 1.99 µM) | MIC ([15]; no serum): 0.78 µg/mL (≈ 0.993 µM) | stable in plasma [16]: at least 24 h | toxicity in patients with advanced solid tumors ([17]; doses up to 200 μg/m^2): minimal toxicity | toxicity in human cancer clinical trials ([17]; doses up to 455 μg/m^2): minimal toxicity | MFC (Cryptococcus neoformans [18]; ATCC 14116): 6.25 µg/mL (≈ 7.96 µM) | MIC (Cryptococcus neoformans [18]; ATCC 14116): 3.12 µg/mL (≈ 3.97 µM) | MFC (Cryptococcus neoformans [18]; ATCC 32045): 1.56 µg/mL (≈ 1.99 µM) | MIC (Cryptococcus neoformans [18]; ATCC 32045): 0.78 µg/mL (≈ 0.993 µM) | MFC (Cryptococcus neoformans [18]; ATCC 66031): 1.56 µg/mL (≈ 1.99 µM) | MIC (Cryptococcus neoformans [18]; ATCC 66031): 0.78 µg/mL (≈ 0.993 µM) | MFC (Cryptococcus neoformans [18]; ATCC 90112): 1.56 µg/mL (≈ 1.99 µM) | MIC (Cryptococcus neoformans [18]; ATCC 90112): 0.78 µg/mL (≈ 0.993 µM)

CCC(C)C(C(CC(=O)N1CCC[C@H]1C(OC)C(C)C(=O)NC(Cc1ccccc1)C(=O)Nc1nnc(-c2ccccc2)s1)OC)N(C)C(=O)[C@@H](NC(=O)[C@H](C(C)C)N(C)C)C(C)C (stereo partly shown) [1b]
MIC (Cryptococcus albidus [9]): >100 μg/disk | MIC (Candida glabrata [10]): >100 μg/disk | MIC (Candida albicans [11]): >100 μg/disk | MIC (Cryptococcus laurentii [12]): >100 μg/disk | MIC (Cryptococcus neoformans [13]): 3.12-6.25 μg/disk | MFC relative to MIC (Cryptococcus neoformans [18]; C. neoformans #14116): sixteenfold greater than MICs
